A short description of data set [1]: In vivo metabolism (pharmacokinetic) experiment in mice. Conditions: male, ICR, mouse, po, 10 mg/kg, male ICR mice; for bioavailability: oral 10 mg/kg vs iv 2.5 mg/kg, read-out: F (%); for AUC(0-inf) / Cmax / half-life: oral 10 mg/kg, plasma; for AUC(0-inf): read-out: AUC0-inf(po); for Cmax: read-out: Cmax (po); for half-life: read-out: T1/2 (po) (converted). Set-up: species or system male ICR mice. On the procedure: Animal: male ICR mice. The animals were randomly assigned to treatment groups and fasted for 12 h prior to dosing.
Drug: the compound of the present disclosure was dissolved in a vehicle (5% DMSO+5% Solutol HS15+90% saline). For intravenous (iv) administration, the dose was 2.5 mg/kg with a dosing volume of 5 mL/kg; for oral (po) administration, the dose was 10 mg/kg with a dosing volume of 10 mL/kg body weight. Sample collection and bioanalysis: blood was collected from the orbit of the mice and added into EP tubes containing heparin sodium at 0.083, 0.25, 0.5, 1, 2, 4, 6, and 8 h (n=3 for each time point). Immediately after blood collection, the mice were euthanized by cervical dislocation, and mouse brains were collected at the corresponding time points. All samples were promptly collected, snap-frozen, and stored at −70° C. for later use. Plasma samples were obtained by centrifugation of whole blood. 10 μL of plasma was mixed with 190 μL of internal standard solution (20 ng/ml in acetonitrile containing 0.1% formic acid). After mixing, the samples were centrifuged at 13000 rpm for 10 min, and 120 μL of the supernatant was separately collected. Depending on the sensitivity of the compound, 0.5-10 μL of the supernatant was taken for drug analysis using the appropriate liquid chromatography-tandem mass spectrometry (LC-MS/MS). Each analyte was calibrated and identified using standards. According to brain tissue: the extract (50% acetonitrile/water) at a ratio of 1 g:8 mL was homogenized for 2 min using five 3 mm magnetic beads in an OMNI Bead Ruptor 24 Elite homogenizer at 3.2 m/s and centrifuged at 4° C. and 3000 g for 3 min. 50 μL of the supernatant was mixed with 200 μL of internal standard solution (20 ng/mL in 80% acetonitrile/water). After mixing, the samples were centrifuged at 13,000 rpm for 10 min, and 120 μL of the supernatant was separately collected. Depending on the sensitivity of the compound, 0.5-10 μL of the supernatant was taken for drug analysis using the appropriate LC-MS/MS method. Each analyte was calibrated and identified using standards.
Data analysis: drug concentrations below the lower limit of quantification (LLOQ) were considered zero. Pharmacokinetic parameters were analyzed using PK Solver with a non-compartmental, bolus injection or extravascular input analysis models. Data points below the LLOQ were excluded to improve the efficacy of t1/2 calculation.

Data set [2] relates to male C57 mice. In words: Forced swim test. It counts as in vivo. To be noted: intraperitoneal injection, test 0.5 h after dosing, motionless time in last 4 min. How it is done: Drug: the compound of the present disclosure was first uniformly mixed with 5% DMSO and 5% Solutol® HS 15. hysiological saline was then added to make up 90% of the final volume. The mixture was prepared at an appropriate concentration immediately before use.
Animal: male C57 mice, about 22 g. The animals were randomly divided into a blank control group and test drug groups, 8 animals per group, and mice in each group were administered either the vehicle or the test compound via intraperitoneal injection.
Experimental steps: the mice were subjected to forced swim test 0.5 h after dosing. The water level in the forced swim device was 45 cm, and the water temperature was 25° C. The mice were placed in an experimental room to adapt to the environment for 1 h before the experiment began. When the experiment began, the mice were placed in the device for 6 min, and the whole process was recorded by a camera. Only the motionless time of the mice in the last 4 min was counted when data were analyzed.

Data set [3] addresses human SERT (Homo sapiens, UniProt P31645). In words: Inhibitory activity assay against 5-HT transporter (neurotransmitter transporter uptake assay kit). It is filed as cell-based. Conditions: HEK-293 cells overexpressing human SERT; read-out: 5-HTT (IC50). How it is done:
In HEK-293 cells overexpressing human SERT, the transporter inhibitory effect of the test compound on human SERT was assayed using a Neurotransmitter transporter uptake assay kit (Molecular devices).

A short description of data set [4]: Human liver microsome assay (metabolic stability). It is filed as in vitro ADME. To be noted: for half-life at 1 μM / CLint scaled at 1 μM: pH 7.4. How it is done: Control and reagent: NADPH, magnesium chloride, testosterone, phosphate buffer, etc. were supplied by Dalian Meilun Biotech Co., Ltd., etc.
Liver microsome: human liver microsomes were supplied by Corning.
Experimental step: the liver microsome incubations were performed in 96-well plates, each incubation system having a volume of 200 μL, in a medium of 0.1 M phosphate buffer (pH 7.4), including liver microsomes at a final concentration of 0.2 mg/mL, 1 μM of the test drug, 3.0 mM MgCl2, 0.01% DMSO, 0.5% acetonitrile, and 2.0 mM NADPH. The incubation system described above without NADPH was pre-incubated at 37° C. for 5 min using a rotary water bath constant temperature oscillator. NADPH was added to initiate the reaction. At 0, 5, 15, 30, and 60 min, 20 μL of the sample was taken out from the incubation system after mixing well and added to 200 μL of acetonitrile containing an internal standard to terminate the reaction. Under the same conditions, 1 μM testosterone was used as a positive control to assess the reliability of the reaction system. For the negative control, phosphate buffer was used instead of NADPH, and all other incubation conditions remained the same. At 60 min, 20 μL of the sample was taken out after mixing well and added to 200 μL of termination solution containing an internal standard to terminate the reaction.
Sample analysis: After treatments such as precipitated protein extraction with an organic solvent, the incubated sample was analyzed using liquid chromatography-tandem mass spectrometry (LC-MS/MS). The concentrations of the test drug or the positive control drug in the sample were semi-quantified. The concentration in the sample was expressed using the ratio of the analyte peak area to the internal standard peak area.
Data processing and analysis: A standard curve of the In residual rate of the drug in the incubation system with respect to the incubation time was plotted by using Excel software, linear regression was performed to obtain a slope k, and the half-life T1/2 (min) and the intrinsic clearance CLint (mL/min/kg) were calculated according to the following formula: […]
(In general: Liver microsomes are a subcellular fraction often used to study metabolism.)

For data set [5], the target named is human DAT (Homo sapiens, UniProt Q01959). Briefly: DAT transporter inhibitory activity test (neurotransmitter transporter uptake assay kit). It counts as cell-based. On the procedure:
Transporter inhibition of human DAT and NET expressed in HEK-293 cells was assessed using a neurotransmitter transporter uptake assay kit. The assay was performed as described in the kit instructions, using centanafadine as a positive control. The specific procedures were as follows:
DAT stably transfected culture: The DAT-HEK cell line was cultured in DMEM medium containing 10% fetal bovine serum and 0.2 mg/mL hygromycin B at 37° C. with 5% carbon dioxide.
DAT stably transfected cell passage: the old medium was removed, and the cells were washed once with PBS; 1 mL of TrypLE™ Express solution was then added, and the cells were incubated at 37° C. for about 2 min. When the cells were detached from the bottom of the dish, about 5 mL of complete medium pre-heated at 37° C. was added. The cell suspension was gently pipetted to separate the aggregated cells. The cell suspension was transferred to a sterile centrifuge tube and centrifuged at 1000 rpm for 5 min. In order to maintain the physiological activity of the cells, the experimental cell confluence was controlled at about 80%.
• a) After overnight transfection of NET cells, the cells were digested with trypsin, resuspended with DMEM+10% Dialyzed FBS medium, seeded into a 384-well plate at 20000 cells/well, and incubated overnight. […] After centrifuging, the plate was incubated at 37° C. for 30 min. • e) A detection reagent was prepared using 1×HBSS, and 16 μL of the detection reagent was added to each well. […] Curve fitting and IC50 calculation were performed using GraphPad Prism software nonlinear regression method.

[6] abbreviates: human liver microsomes 0.2 mg/mL, 1 μM test drug, NADPH, 37° C., read-out: Half-life (t1/2, min).
The mark [7] stands for this setting: human liver microsomes 0.2 mg/mL, 1 μM test drug, NADPH, 37° C., read-out: Intrinsic clearance (Clint, mL/min/kg).

Read-outs that look alike come from different tables or passages of the source.

Chain of human DAT (Q01959 whole entry): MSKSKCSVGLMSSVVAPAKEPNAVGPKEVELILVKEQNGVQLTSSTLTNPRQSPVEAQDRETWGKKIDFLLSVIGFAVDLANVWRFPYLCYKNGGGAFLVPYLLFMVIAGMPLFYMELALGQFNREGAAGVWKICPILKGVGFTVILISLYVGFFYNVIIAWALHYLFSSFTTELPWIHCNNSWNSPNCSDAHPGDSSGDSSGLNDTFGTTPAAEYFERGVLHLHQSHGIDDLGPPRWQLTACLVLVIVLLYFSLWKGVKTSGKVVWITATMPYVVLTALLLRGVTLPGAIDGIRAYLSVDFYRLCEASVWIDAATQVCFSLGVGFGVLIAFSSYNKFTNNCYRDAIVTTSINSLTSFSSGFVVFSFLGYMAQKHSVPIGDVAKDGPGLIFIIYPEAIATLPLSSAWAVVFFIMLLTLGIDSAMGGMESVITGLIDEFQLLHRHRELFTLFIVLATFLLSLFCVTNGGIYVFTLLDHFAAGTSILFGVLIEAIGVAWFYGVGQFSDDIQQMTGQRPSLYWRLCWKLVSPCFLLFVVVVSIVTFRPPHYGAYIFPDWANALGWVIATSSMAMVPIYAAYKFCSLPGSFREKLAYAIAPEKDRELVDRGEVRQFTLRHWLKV
Chain of human SERT (P31645 whole entry): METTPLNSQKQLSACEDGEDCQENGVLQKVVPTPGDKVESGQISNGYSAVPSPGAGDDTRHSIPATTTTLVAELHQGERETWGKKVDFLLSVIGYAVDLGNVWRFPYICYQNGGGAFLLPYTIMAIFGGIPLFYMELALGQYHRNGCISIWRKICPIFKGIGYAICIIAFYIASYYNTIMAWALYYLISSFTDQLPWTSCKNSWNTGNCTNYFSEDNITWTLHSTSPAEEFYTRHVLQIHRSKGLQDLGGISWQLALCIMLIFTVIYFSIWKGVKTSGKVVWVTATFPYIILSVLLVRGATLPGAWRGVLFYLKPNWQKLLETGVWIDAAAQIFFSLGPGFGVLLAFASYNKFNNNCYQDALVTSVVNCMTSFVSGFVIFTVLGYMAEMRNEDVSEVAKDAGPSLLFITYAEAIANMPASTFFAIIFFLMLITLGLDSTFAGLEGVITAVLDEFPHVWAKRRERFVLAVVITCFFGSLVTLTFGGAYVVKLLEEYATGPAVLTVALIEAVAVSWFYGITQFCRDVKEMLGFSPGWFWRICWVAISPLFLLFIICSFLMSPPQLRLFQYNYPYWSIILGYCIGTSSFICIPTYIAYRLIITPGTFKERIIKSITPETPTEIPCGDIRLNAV

Consider `Nc1nc2c(s1)CC(N)(c1ccccc1)CC2` (racemic) [rac-A1, 6-phenyl-4,5,6,7-tetrahydrobenzothiazole-2,6-diamine], for which, in data set [1], the bioavailability is 132%, the AUC(0-inf) was found to be 2830 ng·h/mL, the Cmax (usually the maximum level reached in the sampled fluid or tissue) amounted to 413 ng/mL and the half-life is 4.68 h. The “Effective dose” value in data set [2] is 1 mg/kg.
Consider `Nc1nc2c(s1)CC(N)(c1ccccc1F)CC2` (racemic) [rac-A9, 6-(2-fluorophenyl)-4,5,6,7-tetrahydrobenzothiazole-2,6-diamine], for which the IC50 (as a rule, the point on the concentration scale where inhibition reaches its midpoint) in data set [3] came to 0.8 µM. For the same compound, in data set [2], the “Effective dose” value was 1 mg/kg.
Regarding `Nc1nc2c(s1)CCC(N)(c1ccccc1)C2` (racemic) [rac-A132, 5-phenyl-4,5,6,7-tetrahydrobenzo[d]thiazole-2,5-diamine], the “Effective dose” value in data set [2] was 3 mg/kg.
Turning to `c1ccc(C2(N3CCCCC3)CCc3ncsc3C2)cc1` (racemic) [rac-A71, 6-phenyl-6-(piperidin-1-yl)-4,5,6,7-tetrahydrobenzothiazole], the half-life at 1 μM in data set [4] (setting [6]) was determined as 210 min. Moreover, the CLint scaled at 1 μM in data set [4] (setting [7]) worked out at 13.8 mL/min/kg.
`c1ccc(C2(N3CCCC3)CCc3oncc3C2)cc1` (racemic) [rac-A55, 5-phenyl-5-(pyrrolidin-1-yl)-4,5,6,7-tetrahydrobenzo[d]isoxazole]: the IC50 is 4.5 µM in data set [5] (DAT stably transfected HEK cells, read-out: DAT (IC50)) and 7.2 µM in data set [3]. Moreover, the half-life at 1 μM in data set [4] (setting [6]) stood at 62 min. The CLint scaled at 1 μM in data set [4] (setting [7]) stood at 65.8 mL/min/kg.
Regarding `CCCNC1(c2ccccc2)CCc2nc(N)sc2C1` (racemic) [rac-A7, 6-phenyl-N^6-propyl-4,5,6,7-tetrahydrobenzothiazole-2,6-diamine], in data set [1], the bioavailability amounted to 55%, the AUC(0-inf) is 768 ng·h/mL, the highest concentration (Cmax) was 208 ng/mL and the half-life was 1.72 h. In data set [5], the half-maximal inhibitory concentration (IC50) worked out at 4.5 µM. Also, the half-life at 1 μM in data set [4] (setting [6]) is above 120 min.
As to `C[C@]12CC[C@H]3[C@@H](CCC4=CC(=O)CC[C@@]43C)[C@@H]1CC[C@@H]2O` [Testosterone, testosterone, reference compound], in data set [4] (human liver microsomes 0.2 mg/mL, 1 μM test drug, NADPH, 37° C.), the “Half-life (t1/2, min)” value worked out at 15.3 min. Moreover, in data set [4] (setting [7]), the CLint scaled at 1 μM was 265 mL/min/kg.
As to `c1ccc(C2(N3CCCCC3)CCc3[nH]ncc3C2)cc1` (racemic) [rac-A70, 5-phenyl-5-(piperidin-1-yl)-4,5,6,7-tetrahydro-1H-indazole], the “Effective dose” value in data set [2] is 1 mg/kg. The half-life at 1 μM in data set [4] (setting [6]) was above 120 min.
With `c1ccc(C2(N3CCCC3)CCc3[nH]ncc3C2)cc1` (racemic) [rac-A12, 5-phenyl-5-(pyrrolidin-1-yl)-4,5,6,7-tetrahydro-1H-indazole], the “Effective dose” value in data set [2] worked out at 1 mg/kg. In data set [4] (human, microsomes), this compound had a CLint scaled at 1 μM of 12.4 mL/min/kg and a half-life at 1 μM of 327 min.
Take `CNC1(c2cccc(OC(F)F)c2)CCc2nc(N)sc2C1` (racemic) [rac-A282, 6-(3-(difluoromethoxy)phenyl)-N6-methyl-4,5,6,7-tetrahydrobenzo[d]thiazole-2,6-diamine]: the “Effective dose” value in data set [2] is listed as 5 mg/kg.
For `Nc1nc2c(s1)CCCC2(N)c1ccccc1` (racemic) [rac-A35, 4-phenyl-4,5,6,7-tetrahydrobenzothiazole-2,4-diamine], in data set [1], the AUC(0-inf) was found to be 5110 ng·h/mL, the highest concentration (Cmax) was 1140 ng/mL and the half-life is 2.66 h. For the same compound, the “Effective dose” value in data set [2] amounted to 3 mg/kg.
With `Nc1nc2c(s1)CC(N)(c1cccc(OCC3CC3)c1)CC2` (racemic) [rac-A259, 6-(3-(cyclopropylmethoxy)phenyl)-4,5,6,7-tetrahydrobenzo[d]thiazole-2,6-diamine], the “Effective dose” value in data set [2] is recorded as 5 mg/kg.
As for `NC1(c2ccccc2)CCCc2scnc21` (racemic) [rac-A32, 4-phenyl-4,5,6,7-tetrahydrobenzothiazol-4-amine], in data set [4] (setting [6]), the half-life at 1 μM is 196 min. In data set [4] (setting [7]), the CLint scaled at 1 μM was 20.7 mL/min/kg.
Regarding `Nc1nc2c(s1)CC(N)(c1cccc(OCC(F)(F)F)c1)CC2` (racemic) [rac-A255, 6-(3-(2,2,2-trifluoroethoxy)phenyl)-4,5,6,7-tetrahydrobenzo[d]thiazole-2,6-diamine], the “Effective dose” value in data set [2] is 5 mg/kg.
The same measure, in the same setting: the same measure for `CCOc1cccc(C2(N)CCc3nc(N)sc3C2)c1` (racemic) [rac-A228, 6-(3-ethoxyphenyl)-4,5,6,7-tetrahydrobenzo[d]thiazole-2,6-diamine]: 5 mg/kg.
Still for that read-out and setting: in the case of `Nc1nc2c(s1)CC(N)(c1cccc(OC(F)F)c1)CC2` (racemic) [rac-A256, 6-(3-(difluoromethoxy)phenyl)-4,5,6,7-tetrahydrobenzo[d]thiazole-2,6-diamine] it was 5 mg/kg.

These data come from patent US20260174739A1 (priority 2022, published 2026).
